Where “and” joins values, the source holds several entries; their conditions need not be identical. Equal entries are not always repeated. Peptide text beside a SMILES is read from it.
What was measured:
human CXCR4 [1] = molecular target: T1, human CXCR4 (Homo sapiens, UniProt P61073); assay: Competitive receptor binding assay on Jurkat cells with 125I-CPCR4 as tracer; parameters: Jurkat cells that endogenously express the CXCR4 receptor; endogenous in cells; host or cells: Jurkat cells; settings: Table 4, Orn-Nδ and/or Orn-Nα-modified pentapeptides; read-out: IC50
Procedure: For receptor binding assays cells were resuspended in PBS/0.2% BSA. A total of 200 μl of the suspension containing 400,000 Jurkat cells were incubated with 25 μl of the tracer solution (containing 3.1 kBq, approx. 0.1 nM) and 25 μl of the diluent or the competitor at different concentrations. […] After shaking for 2 h at room temperature, the incubation was terminated by centrifugation at 1300 rpm for 5 min. Cell pellets were washed once with cold PBS followed by a second centrifugation step. Cell bound radioactivity was determined by using a gamma counter. Experiments were repeated 2-3 times in triplicates. IC50 values of the compounds were calculated by nonlinear regression using GraphPad Prism (GraphPad Prism 4.0 Software, Inc., San Diego, Calif., USA). Each data point is the average of three determinations.

human CXCR4 [2] = molecular target: T1, human CXCR4; assay: Receptor functionality: FACS staining of surface CXCR4 after pre-incubation with SDF-1α; assay type: cell-based; parameters: expressed in transfected cells; host or cells: murine CMS5 fibrosarcoma cells, retroviral vector pBulletCXCR4-IRES-eGFP
Source text: CXCR-4 staining was plotted against EGFP fluorescence (FL1).

human CXCR4 [3] = molecular target: T1, human CXCR4; assay: Radioligand (saturation) binding of 125I-CPCR4 on Jurkat and CMS5/CXCR4 cells; parameters: Jurkat cells that endogenously express the CXCR4 receptor; endogenous in cells; host or cells: Jurkat cells
Procedure: For receptor binding assays cells were resuspended in PBS/0.2% BSA. A total of 200 μl of the suspension containing 400,000 Jurkat cells were incubated with 25 μl of the tracer solution (containing 3.1 kBq, approx. 0.1 nM) and 25 μl of the diluent or the competitor at different concentrations. […] Nonspecific binding was determined in the presence of 1 μM cold cyclo(D-Tyr^1[^127I]-Arg^2-Arg^3-Nal^4-Gly^5). After shaking for 2 h at room temperature, the incubation was terminated by centrifugation at 1300 rpm for 5 min. Cell pellets were washed once with cold PBS followed by a second centrifugation step. Cell bound radioactivity was determined by using a gamma counter. Experiments were repeated 2-3 times in triplicates. IC50 values of the compounds were calculated by nonlinear regression using GraphPad Prism (GraphPad Prism 4.0 Software, Inc., San Diego, Calif., USA). Each data point is the average of three determinations.
Whereas for Jurkat cells the Bmax value was more dependent on origin and varies stronger with culture conditions, the number of binding sites (Bmax) on CMS5/CXCR4 cells was constant and better reproducible (23±6 fmol receptor protein).

CMS5/CXCR4 tumours = assay: Biodistribution of 125I-CPCR4 in CMS5 and CMS5/CXCR4 tumour bearing nude mice; assay type: in vivo; settings: for accumulation in CMS5/CXCR4 tumours / accumulation in parental CMS5 (CXCR4 negative control) tumours: i.v.
Procedure: For animal experiments parental CMS5 cells and transduced CMS5/CXCR4 cells were injected subcutaneously in female Swiss nu/nu mice (Charles River, France). Therefore for each mouse 1.5×10^6 CMS5 cells and 2×10^6 CMS5/CXCR4 cells were resuspended in 75 μl PBS, respectively and mixed with the same volume Matrigel-Matrix HC (BD Biosciences, Heidelberg, Germany) according to the manufacturer's protocol. Subsequently cell suspension was inoculated at each shoulder, respectively. After 14-16 days of tumour growth mice were used for imaging and biodistribution purposes. All animal experiments were approved by the local authorities and are in compliance with the institutions guidelines.
The animals were sacrificed and dissected 30, 60 and 120 min after tracer injection. Organs of interest were removed and the radioactivity was measured in weighted tissue samples using the 1480 Wizard3 gamma counter from Wallac (Turku, Finland). Results are expressed as percent injected dose per gram tissue weight (% ID/g). Each value represents the mean of four to six animals.

human CXCR4 [4] = molecular target: T1, human CXCR4; assay: Receptor internalization: tracer release after acidic buffer wash; assay type: cell-based; parameters: Jurkat cells that endogenously express the CXCR4 receptor; endogenous in cells; host or cells: Jurkat cells; settings: after two short washing steps with acidic buffer (pH5.0)
Source text: Thereafter the tracer was mostly releasable from the receptor (>80%).

[5] = 60 min (1 h) post injection, listed as radiolabeled CPCR4

T1 sequence (P61073 whole entry): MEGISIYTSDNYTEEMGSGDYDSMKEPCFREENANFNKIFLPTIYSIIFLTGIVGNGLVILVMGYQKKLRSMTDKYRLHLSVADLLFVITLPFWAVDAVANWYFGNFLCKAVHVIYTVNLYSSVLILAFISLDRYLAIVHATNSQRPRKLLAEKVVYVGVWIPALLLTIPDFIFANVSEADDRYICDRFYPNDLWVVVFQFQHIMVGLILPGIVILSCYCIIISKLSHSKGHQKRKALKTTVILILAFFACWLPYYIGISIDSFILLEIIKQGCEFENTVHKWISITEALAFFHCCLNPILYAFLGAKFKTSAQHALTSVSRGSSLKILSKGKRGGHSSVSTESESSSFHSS

N=C(N)NCCC[C@@H]1NC(=O)[C@H](CCCNCc2cccc3ccccc23)NC(=O)[C@@H](Cc2ccc(O)cc2)NC(=O)CNC(=O)[C@H](Cc2ccc3ccccc3c2)NC1=O [cyc[D-Tyr-Orn(N1)-Arg-Nal-Gly]] (HELM PEPTIDE1{[dY].[O=C([C@H](CCCNCc1cccc2ccccc12)N[*:1])[*:2]].R.[O=C([C@H](Cc1ccc2ccccc2c1)N[*:1])[*:2]].G}$PEPTIDE1,PEPTIDE1,1:R1-5:R2$$$V2.0)
IC50 (human CXCR4 [1]): 40 ± 3 nM

N=C(N)NCCC[C@@H]1NC(=O)[C@H](CCCNCc2ccc3ccccc3c2)NC(=O)[C@@H](Cc2ccc(O)cc2)NC(=O)CNC(=O)[C@H](Cc2ccc3ccccc3c2)NC1=O [cyc[D-Tyr-Orn(N2)-Arg-Nal-Gly]] (HELM PEPTIDE1{[dY].[O=C([C@H](CCCNCc1ccc2ccccc2c1)N[*:1])[*:2]].R.[O=C([C@H](Cc1ccc2ccccc2c1)N[*:1])[*:2]].G}$PEPTIDE1,PEPTIDE1,1:R1-5:R2$$$V2.0)
IC50 (human CXCR4 [1]): 49 ± 1 nM

SDF-1α
mean fluorescence intensity, CMS5/CXCR4 cells (human CXCR4 [2]; SDF-1α treated, mock treated 209.0): 80.5
CMS5/CXCR4 cells stained positive for CXCR4 (human CXCR4 [2]; after pre-incubation with human SDF-1α 100 nM, 1 hr 37° C., control-treated […]): 54.7%

cyclo(D-Tyr^1[^125I]-Arg^2-Arg^3-Nal^4-Gly^5) [^125I-CPCR4]
specific binding (human CXCR4 [3]): > 90%
accumulation in intestine (CMS5/CXCR4 tumours; 30 min post injection): 16.0 (±4.7) % ID/g
accumulation in liver (CMS5/CXCR4 tumours; 30 min post injection): 27.7 (±4.9) % ID/g
accumulation in CMS5/CXCR4 tumours (CMS5/CXCR4 tumours; 30 min post injection): 4.7 (±1.3) % ID/g
accumulation in kidneys (CMS5/CXCR4 tumours; 60 min (1 h) post injection): 12.2 (±2.3) % ID/g
accumulation in CMS5/CXCR4 tumours (CMS5/CXCR4 tumours; 60 min (1 h) post injection): 5.5 (±1.5) % ID/g and 5.5 % ID/g
accumulation in parental CMS5 (CXCR4 negative control) tumours (CMS5/CXCR4 tumours; 60 min (1 h) post injection): 0.6 (±0.2) % ID/g
accumulation in CMS5/CXCR4 tumours (CMS5/CXCR4 tumours; [5]): 5.5±1.5 % ID/g
accumulation in parental CMS5 (CXCR4 negative control) tumours (CMS5/CXCR4 tumours; [5]): 0.6±0.2 % ID/g
accumulation in kidneys (CMS5/CXCR4 tumours; [5]): 12.2±2.3 % ID/g
tracer uptake in intestine (CMS5/CXCR4 tumours; 1 h post injection): 17.2±2.9 % ID/g
tracer uptake in liver (CMS5/CXCR4 tumours; 1 h post injection): 19.5±2.8 % ID/g
background accumulation (CMS5/CXCR4 tumours; 1 h post injection, other organs): < 1.0 % ID/g
accumulation in intestine (CMS5/CXCR4 tumours; 120 min post injection): 19.2 (±4.5) % ID/g
accumulation in kidneys (CMS5/CXCR4 tumours; 120 min post injection): 8.2 (±1.1) % ID/g
accumulation in liver (CMS5/CXCR4 tumours; 120 min post injection): 15.0 (±1.8) % ID/g
accumulation in CMS5/CXCR4 tumours (CMS5/CXCR4 tumours; 120 min post injection): 3.8 (±1.4) % ID/g
increased accumulation in CXCR4+ tumors compared to control tumors (CMS5/CXCR4 tumours; preliminary animal studies): around 10 times
tracer releasable from the receptor (human CXCR4 [4]): > 80%
